Assay results as given in ChEMBL document CHEMBL3046635, “Synthesis and Herbicidal Activity of New Pyrazole-4-carboxamide Derivatives” (J Pestic Sci, 2004).
Active and inactive are the calls of the source.

system: Echinochloa oryzicola; assay: Post-emergence herbicidal activity against Echinochloa oryzicola assessed as bleaching of stem/leaf parts; type: functional, organism-based; settings: not given; also: test concentration or dose not given here

Compound | Activity
C=CCNC(=O)c1cn(C)nc1OCc1cccc(C(F)(F)F)c1 | Active

system: Echinochloa oryzicola; assay: Pre-emergence herbicidal activity against Echinochloa oryzicola at 500 g a.i/ha measured after 14 days; type: functional, organism-based; settings: not given

Compound | Activity
C=CCNC(=O)c1cn(C)nc1OCc1cccc(C(F)(F)F)c1 | inactive

system: Pontederia vaginalis; assay: Pre-emergence herbicidal activity against Monochoria vaginalis assessed as bleaching of stem/leaf parts; type: functional, organism-based; settings: not given

Compound | Activity
C=CCNC(=O)c1cn(C)nc1OCc1cccc(C(F)(F)F)c1 | Active

system: Rotala indica; assay: Pre-emergence herbicidal activity against Rotala indica at 500 g a.i/ha measured after 14 days; type: functional, organism-based; settings: not given

Compound | Activity
C=CCNC(=O)c1cn(C)nc1OCc1cccc(C(F)(F)F)c1 | inactive

system: Rotala indica; assay: Post-emergence herbicidal activity against Rotala indica assessed as bleaching of stem/leaf parts; type: functional, organism-based; settings: not given; also: test concentration or dose not given here

Compound | Activity
C=CCNC(=O)c1cn(C)nc1OCc1cccc(C(F)(F)F)c1 | Active

system: Eleocharis acicularis; assay: Pre-emergence herbicidal activity against Eleocharis acicularis at 500 g a.i/ha measured after 14 days; type: functional, organism-based; settings: not given

Compound | Activity
C=CCNC(=O)c1cn(C)nc1OCc1cccc(C(F)(F)F)c1 | inactive

system: Cyperus difformis; assay: Pre-emergence herbicidal activity against Cyperus difformis at 500 g a.i/ha measured after 14 days; type: functional, organism-based; settings: not given

Compound | Activity
C=CCNC(=O)c1cn(C)nc1OCc1cccc(C(F)(F)F)c1 | inactive

system: Cyperus difformis; assay: Pre-emergence herbicidal activity against Cyperus difformis assessed as bleaching of stem/leaf parts; type: functional, organism-based; settings: not given

Compound | Activity
C=CCNC(=O)c1cn(C)nc1OCc1cccc(C(F)(F)F)c1 | Active

system: Schoenoplectiella juncoides; assay: Post-emergence herbicidal activity against Schoenoplectiella juncoides assessed as bleaching of stem/leaf parts; type: functional, organism-based; settings: not given; also: test concentration or dose not given here

Compound | Activity
C=CCNC(=O)c1cn(C)nc1OCc1cccc(C(F)(F)F)c1 | Active

system: Oryza sativa; assay: Phytotoxicity against Oryza sativa cv. Koshihikari (rice) at 500 g a.i/ha measured after 14 days; type: organism-based; settings: in vivo, 336 h

Compound | Activity
C=CCNC(=O)c1cn(C)nc1OCc1cccc(C(F)(F)F)c1 | Non-toxic

system: Eleocharis acicularis; assay: Post-emergence herbicidal activity against Eleocharis acicularis assessed as bleaching of stem/leaf parts; type: functional, organism-based; settings: not given; also: test concentration or dose not given here

Compound | Activity
C=CCNC(=O)c1cn(C)nc1OCc1cccc(C(F)(F)F)c1 | Active

system: Elatine triandra; assay: Pre-emergence herbicidal activity against Elatine triandra assessed as bleaching of stem/leaf parts; type: functional, organism-based; settings: not given

Compound | Activity
C=CCNC(=O)c1cn(C)nc1OCc1cccc(C(F)(F)F)c1 | Active

system: Eleocharis acicularis; assay: Pre-emergence herbicidal activity against Eleocharis acicularis assessed as bleaching of stem/leaf parts; type: functional, organism-based; settings: not given

Compound | Activity
C=CCNC(=O)c1cn(C)nc1OCc1cccc(C(F)(F)F)c1 | Active

system: Lindernia procumbens; assay: Post-emergence herbicidal activity against Lindernia procumbens assessed as bleaching of stem/leaf parts; type: functional, organism-based; settings: not given; also: test concentration or dose not given here

Compound | Activity
C=CCNC(=O)c1cn(C)nc1OCc1cccc(C(F)(F)F)c1 | Active

system: Elatine triandra; assay: Post-emergence herbicidal activity against Elatine triandra assessed as bleaching of stem/leaf parts; type: functional, organism-based; settings: not given; also: test concentration or dose not given here

Compound | Activity
C=CCNC(=O)c1cn(C)nc1OCc1cccc(C(F)(F)F)c1 | Active

system: Ammannia multiflora; assay: Post-emergence herbicidal activity against Ammannia multiflora assessed as bleaching of stem/leaf parts; type: functional, organism-based; settings: not given; also: test concentration or dose not given here

Compound | Activity
C=CCNC(=O)c1cn(C)nc1OCc1cccc(C(F)(F)F)c1 | Active

system: Schoenoplectiella juncoides; assay: Pre-emergence herbicidal activity against Schoenoplectiella juncoides at 500 g a.i/ha measured after 14 days; type: functional, organism-based; settings: not given

Compound | Activity
C=CCNC(=O)c1cn(C)nc1OCc1cccc(C(F)(F)F)c1 | inactive

system: Lindernia procumbens; assay: Pre-emergence herbicidal activity against Lindernia procumbens assessed as bleaching of stem/leaf parts; type: functional, organism-based; settings: not given

Compound | Activity
C=CCNC(=O)c1cn(C)nc1OCc1cccc(C(F)(F)F)c1 | Active

system: Pontederia vaginalis; assay: Post-emergence herbicidal activity against Monochoria vaginalis assessed as bleaching of stem/leaf parts; type: functional, organism-based; settings: not given; also: test concentration or dose not given here

Compound | Activity
C=CCNC(=O)c1cn(C)nc1OCc1cccc(C(F)(F)F)c1 | Active

system: Rotala indica; assay: Pre-emergence herbicidal activity against Rotala indica assessed as bleaching of stem/leaf parts; type: functional, organism-based; settings: not given

Compound | Activity
C=CCNC(=O)c1cn(C)nc1OCc1cccc(C(F)(F)F)c1 | Active

system: Elatine triandra; assay: Pre-emergence herbicidal activity against Elatine triandra at 500 g a.i/ha measured after 14 days; type: functional, organism-based; settings: not given

Compound | Activity
C=CCNC(=O)c1cn(C)nc1OCc1cccc(C(F)(F)F)c1 | inactive

system: Pontederia vaginalis; assay: Pre-emergence herbicidal activity against Monochoria vaginalis at 500 g a.i/ha measured after 14 days; type: functional, organism-based; settings: not given

Compound | Activity
C=CCNC(=O)c1cn(C)nc1OCc1cccc(C(F)(F)F)c1 | inactive

system: Echinochloa oryzicola; assay: Pre-emergence herbicidal activity against Echinochloa oryzicola assessed as bleaching of stem/leaf parts; type: functional, organism-based; settings: not given

Compound | Activity
C=CCNC(=O)c1cn(C)nc1OCc1cccc(C(F)(F)F)c1 | Active

system: Ammannia multiflora; assay: Pre-emergence herbicidal activity against Ammannia multiflora at 500 g a.i/ha measured after 14 days; type: functional, organism-based; settings: not given

Compound | Activity
C=CCNC(=O)c1cn(C)nc1OCc1cccc(C(F)(F)F)c1 | inactive

system: Ammannia multiflora; assay: Pre-emergence herbicidal activity against Ammannia multiflora assessed as bleaching of stem/leaf parts; type: functional, organism-based; settings: not given

Compound | Activity
C=CCNC(=O)c1cn(C)nc1OCc1cccc(C(F)(F)F)c1 | Active

system: Lindernia procumbens; assay: Pre-emergence herbicidal activity against Lindernia procumbens at 500 g a.i/ha measured after 14 days; type: functional, organism-based; settings: not given

Compound | Activity
C=CCNC(=O)c1cn(C)nc1OCc1cccc(C(F)(F)F)c1 | inactive

system: Schoenoplectiella juncoides; assay: Pre-emergence herbicidal activity against Schoenoplectiella juncoides assessed as bleaching of stem/leaf parts; type: functional, organism-based; settings: not given

Compound | Activity
C=CCNC(=O)c1cn(C)nc1OCc1cccc(C(F)(F)F)c1 | Active

system: Cyperus difformis; assay: Post-emergence herbicidal activity against Cyperus difformis assessed as bleaching of stem/leaf parts; type: functional, organism-based; settings: not given; also: test concentration or dose not given here

Compound | Activity
C=CCNC(=O)c1cn(C)nc1OCc1cccc(C(F)(F)F)c1 | Active
